Measurements as given in patent US8936809B2, “Method for treating prostate diseases based on local delivery of active substances” (Lidds AB, priority 2005, dated 2015).
Values joined by “and” are separate entries in the source; they are usually repeats but may differ in a detail not shown here. Equal entries are not always repeated. Where two headings read alike, the source gives them in different places.

Assays:
[1] = system: dog prostate tissue; assay: Macroscopic anti-proliferate effect on dog prostate tissue: volume before, weight after, palpation (Example 1); format: in vivo; parameters: key to Palpation: 0 = no effect; + = mild effect; ++ = intermediate; +++ = strong effect; details: for Weight of prostate tissue (after): termination after day 20
Description: After day 20, each dog was terminated with an intravenous dose of a mixture of pentobarbital and potassium. The following organs were surgical removed and frozen: prostate, testis, liver and kidney for the assessment of effect and safety. These organs were carefully examined as a consequence of the local tissue exposure of 2-hydroxy-flutamide and the ceramic-based implant. The macroscopic pharmacological anti-proliferate effect of 2-hydroxy-flutamide was examined as the volume-weight ratio of the dog prostate tissue before and after the local administration of 2-hydroxy-flutamide as a single controlled release pharmaceutical composition.

[2] = Observation of behaviour and side effects (diarrhea) in dogs (Example 1); format: in vivo, dog
Method: First, four male dogs (H1-H4) (Labrador, approx. 1 year of age and weight 30 kg) were given 2-hydroxy-flutamide (25 mg) by single bolus doses intravenously during 30 seconds. The intravenous solution base was sterile saline […], sterile polyethylene glycol 400 46% and ethanol (95%) 6%. Blood samples of 1.0 ml were taken from the Cephalic vein at 5, 10, 15, 30, 60, 90, 120, 240, 360, and 600 minutes. The blood samples were immediately centrifuged at 3000 rpm and the plasma samples were frozen at −80° C. until analysis.
One week later, the same animals were given 2-hydroxy-flutamide locally by a controlled release pharmaceutical composition in the prostate tissue. The 2-hydroxy- flutamide doses were 0 mg (H1), 30 mg (H3), 60 mg (H2) and 120 mg (H4), and each dog was given one implant only. Where H1 was a control given the composition without 2-hydroxy-flutamide. All doses of 2-hydroxy-flutamide were given after an overnight fast. Dog 1 (H1) and dog 3 (H3) were given an enema preoperatively. After the local prostate application of the pharmaceutical composition through rectum, an antibiotic (Quinolon) was administered in normal doses.

[3] = Plasma pharmacokinetics after local prostate implant in male beagle dogs (Example 3); format: in vivo, dog; details: for F (bioavailability): beagle dog; for F (bioavailability) / bioavailability: approximated with average i.v. clearance of Example 1; for half-life: read-out: t½ (converted); for bioavailability: iv, read-out: F (bioavailability)
Method: The dog has been selected as the test model because of its proven suitability in this type of study. The study was performed in 12 male beagle dogs from Harlan Winkelmann GmbH, Germany.
The sterile controlled release implant was composed of ceramic compounds and 2-hydroxyflutamide. Storage and handling instructions were given. The composition of the formulation of the low and high dose was 250 mg of 2-hydroxyflutamide +2.25 g calcium sulphate di-hydrat +5.0 g calcium sulphate hemi-hydrate and it was mixed with solution: 3.5 ml of water solution (with 1% acetic acid and 1% methyl cellulose).
The final formulation work was done during sterile conditions by trained personal at the experimental day. The amount injected into each lobe of the androgen sensitive bulbourethral gland was about 2.0-3.0 ml for the low dose (250 mg) and 4.0-6.0 ml of the high dose (500 mg).
The animals were fasted for at least 12 hours prior to the insertion procedure on Day 1. The implant drug delivery system was inserted locally into the prostate tissue, via rectum, through sterile needles during rectal ultrasound guidance. Each animal was under anesthesia during the insertion procedure.
Blood samples for pharmacokinetic was collected as follows: On Day 1: Pre-insertion and 6 hours after insertion. Blood samples were sampled in the morning on Days 2, 3, 4, 5, 6 and 7. During the rest of the study blood samples were collected once a week.
Blood samples of approximately 3 ml were drawn from the jugular vein. The blood was sampled into vacutainers containing EDTA as anticoagulant. The blood was placed in ice water until centrifugation (10 min, 1270 G, +4° C.). The plasma was transferred to Nunc cryotubes (Nunc, Denmark) and frozen at −18° C. or below and sent with dry ice to Swedish Veterinary Institute, Uppsala for analysis.
The plasma pharmacokinetic variables were calculated using standard pharmacokinetic methods and are given for both implant doses of 250 mg and 500 mg in Tables 6 and 7. The bioavailability (F) was approximated by using the average value for clearance of 2-hydroyflutamide when it was given by an intravenous dose in the dog study presented in Example 1.

[4] = system: prostate tissue; assay: Efficacy and safety of local prostate implant in male beagle dogs: side effects, urinated volume, histopathology (Example 3); format: in vivo, dog
Method: The major purpose of the present animal study was to examine the efficacy and safety of the new local drug delivery system with 2-hydroxyflutamide, a selective antagonist of the androgen receptor (AR) as the active moiety in human prostate tissue during various treatment periods in male dogs. The dog has been selected as the test model because of its proven suitability in this type of study. The study was performed in 12 male beagle dogs from Harlan Winkelmann GmbH, Germany. The sterile controlled release implant was composed of ceramic compounds and 2-hydroxyflutamide. Storage and handling instructions were given. The composition of the formulation of the low and high dose was 250 mg of 2-hydroxyflutamide +2.25 g calcium sulphate […] +5.0 g calcium sulphate hemi-hydrate and it was mixed with solution: 3.5 ml of water solution (with 1% acetic acid and 1% methyl cellulose). The final formulation work was done during sterile conditions by trained personal at the experimental day. […] The animals were fasted for at least 12 hours prior to the insertion procedure on Day 1. The implant drug delivery system was inserted locally into the prostate tissue, via rectum, through sterile needles during rectal ultrasound guidance. Each animal was under anesthesia during the insertion procedure.

[5] = beagle dog plasma, local prostate implant 250 mg, individual animals
[6] = beagle dog plasma, local prostate implant 500 mg, individual animals
[7] = male, beagle, dog, plasma, 250 mg, beagle dogs, local prostate implant 250 mg, Mean of four animals
[8] = male, beagle, dog, plasma, 500 mg, beagle dogs, local prostate implant 500 mg, Mean of four animals
[9] = local prostate implant 250 mg or 500 mg

- Tmax [3, 5]: 48 h
- t½ [3, 5]: 34 h and 39 h and 26 h
- Cmax [3, 6]: 202 ng/mL and 133 ng/mL
- Tmax [3, 6]: 48 h
- t½ [3, 6]: 57 h and 59 h and 34 h and 28 h
- F (bioavailability) ([3]; local prostate implant 250 mg, individual animals): 74% and 46% and 50% and 112%
- F (bioavailability) ([3]; local prostate implant 500 mg, individual animals): 86% and 110% and 113% and 98%
- half-life ([3]; male, beagle, dog, plasma, 250 mg, beagle dog plasma, local prostate implant 250 mg, individual animals): 32 h
- AUC ([3]; male, beagle, dog, plasma, 250 mg, beagle dogs, local prostate implant 250 mg, Mean of four animals, read-out: AUC): 8330 ng·h/mL
- Cmax ([3]; male, beagle, dog, plasma, 250 mg, beagle dogs, local prostate implant 250 mg, Mean of four animals, read-out: Cmax): 93 ng/mL
- Tmax ([3]; male, beagle, dog, plasma, 250 mg, beagle dogs, local prostate implant 250 mg, Mean of four animals, read-out: tmax): 17 h
- half-life [3, 7]: 33 h
- AUC ([3]; male, beagle, dog, plasma, 500 mg, beagle dog plasma, local prostate implant 500 mg, individual animals, read-out: AUC): 10200 ng·h/mL
- Cmax ([3]; male, beagle, dog, plasma, 500 mg, beagle dog plasma, local prostate implant 500 mg, individual animals, read-out: Cmax): 102 ng/mL
- AUC ([3]; male, beagle, dog, plasma, 500 mg, beagle dogs, local prostate implant 500 mg, Mean of four animals, read-out: AUC): 12100 ng·h/mL
- Cmax ([3]; male, beagle, dog, plasma, 500 mg, beagle dogs, local prostate implant 500 mg, Mean of four animals, read-out: Cmax): 145 ng/mL
- Tmax ([3]; male, beagle, dog, plasma, 500 mg, beagle dogs, local prostate implant 500 mg, Mean of four animals, read-out: tmax): 27 h
- half-life [3, 8]: 45 h
- bioavailability [3, 7]: 71%
- bioavailability [3, 8]: 102%
SMILES: CC(C)(O)C(=O)Nc1ccc([N+](=O)[O-])c(C(F)(F)F)c1 [2-hydroxy-flutamide]
- Palpation ([1]; dog H2, 60 mg local prostate implant): ++
- Weight of prostate tissue (after) ([1]; dog H2, after local administration of 60 mg): 13 g
- volume of prostate tissue (before) ([1]; dog H2, before local administration of 60 mg): 13.3 cm^3
- Palpation ([1]; dog H3, 30 mg local prostate implant): 0
- Weight of prostate tissue (after) ([1]; dog H3, after local administration of 30 mg): 17 g
- volume of prostate tissue (before) ([1]; dog H3, before local administration of 30 mg): 12.4 cm^3
- Palpation ([1]; dog H4, 120 mg local prostate implant): +++
- Weight of prostate tissue (after) ([1]; dog H4, after local administration of 120 mg): 13 g
- volume of prostate tissue (before) ([1]; dog H4, before local administration of 120 mg): 11.3 cm^3
- anti-proliferate effect ([1]; dogs, local prostate implant, three weeks): clear anti-proliferate effect
- macroscopic effect based on volume (before) and weight (after) ([1]; two higher doses (60 mg, H2 and 120 mg, H4) in comparison with placebo (H1) and low dose (30 mg, H3)): resulted in a macroscopic effect
- diarrhea ([2]; after intravenous administration 25 mg): all dogs suffered from diarrhea
- diarrhea ([2]; after local administration of the controlled release composition in the prostate tissue): not observed in any animals
- AUC [3, 5]: 8701 ng·h/mL and 5446 ng·h/mL and 5921 ng·h/mL and 13237 ng·h/mL
- Cmax [3, 5]: 97 ng/mL and 58 ng/mL and 85 ng/mL and 131 ng/mL
- AUC [3, 6]: 13009 ng·h/mL and 13420 ng·h/mL and 11631 ng·h/mL
- diarrhea [4, 9]: no diarrhea observed
- effect of the treatment on the urinated volume [4, 9]: no effect
- side-effects [4, 9]: no side-effects were observed
- microscopic findings of the prostate tissue (histopathology) ([4]; treated groups, local prostate implant): increased incidence of vacuolation and cystic acini
